Experimental data as given in ChEMBL document CHEMBL2384931, “PAK1: A Therapeutic Target for Cancer Treatment” (ACS Med Chem Lett, 2013).

Assays:
[1] = target: Serine/threonine-protein kinase PAK 3 (Homo sapiens, UniProt O75914); assay: Inhibition of PAK3-mediated MEK1 phosphorylation at Ser298 in human EBC1 cells after 2 hrs by HTRF assay; assay type: cell-based; conditions: pooled result: one value given for 3 cell lines, strains, targets or settings
[2] = target: Serine/threonine-protein kinase PAK 1 (Homo sapiens, UniProt Q13153); assay: Inhibition of human recombinant GST-tagged PAK1 kinase domain-mediated 5FAM-RRRLSFAEPG phosphorylation expressed in Sf9 cells preincubated for 10 mins prior to substrate addition measured after 30 mins by microfluidic mobility shift assay
Serine/threonine-protein kinase PAK 1, sequence (Q13153 whole entry, the tested form may be a part): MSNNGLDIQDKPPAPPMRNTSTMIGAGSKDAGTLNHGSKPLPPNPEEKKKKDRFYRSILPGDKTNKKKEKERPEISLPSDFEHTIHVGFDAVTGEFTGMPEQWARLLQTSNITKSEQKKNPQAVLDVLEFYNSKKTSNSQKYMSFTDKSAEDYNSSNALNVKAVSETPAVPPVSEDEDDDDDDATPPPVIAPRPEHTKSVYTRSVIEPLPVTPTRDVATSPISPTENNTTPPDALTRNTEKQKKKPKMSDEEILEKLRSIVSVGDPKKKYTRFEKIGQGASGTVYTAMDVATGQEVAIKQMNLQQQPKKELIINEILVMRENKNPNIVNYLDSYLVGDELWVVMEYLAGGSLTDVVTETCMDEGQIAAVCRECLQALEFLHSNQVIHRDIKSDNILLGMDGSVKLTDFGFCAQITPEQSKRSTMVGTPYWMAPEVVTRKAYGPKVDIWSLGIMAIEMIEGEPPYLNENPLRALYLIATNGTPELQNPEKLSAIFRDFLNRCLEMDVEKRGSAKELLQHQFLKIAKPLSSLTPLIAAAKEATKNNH

Serine/threonine-protein kinase PAK 3, sequence (O75914 whole entry, the tested form may be a part): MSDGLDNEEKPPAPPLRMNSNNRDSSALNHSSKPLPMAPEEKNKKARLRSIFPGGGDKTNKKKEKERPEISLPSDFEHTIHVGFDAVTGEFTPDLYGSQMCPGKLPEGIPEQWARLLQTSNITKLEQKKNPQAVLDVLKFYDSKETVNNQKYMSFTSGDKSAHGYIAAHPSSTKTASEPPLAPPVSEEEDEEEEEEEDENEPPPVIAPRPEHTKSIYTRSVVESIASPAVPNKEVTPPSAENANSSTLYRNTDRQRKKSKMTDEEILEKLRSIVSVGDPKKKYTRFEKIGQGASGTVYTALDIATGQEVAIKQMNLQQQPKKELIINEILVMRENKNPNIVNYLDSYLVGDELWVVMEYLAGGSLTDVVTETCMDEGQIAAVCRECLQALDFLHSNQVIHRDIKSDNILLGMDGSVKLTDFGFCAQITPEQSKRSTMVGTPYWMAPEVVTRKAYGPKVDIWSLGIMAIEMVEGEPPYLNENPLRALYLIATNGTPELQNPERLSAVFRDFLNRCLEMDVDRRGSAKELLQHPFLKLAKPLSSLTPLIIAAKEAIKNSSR

CC(CO)N(Cc1cc(F)cc2[nH]ncc12)c1nccc(Nc2cc(C3CC3)[nH]n2)n1 (stereo not given)
IC50 [1]: 70.8 nM

C[C@H](Nc1nccc(Nc2cc(C3CCC3)[nH]n2)n1)c1ccc2[nH]ccc2c1
IC50 [1]: 133 nM

COCCN(Cc1cc(F)cc2[nH]ncc12)c1nccc(Nc2cc(C3CC3)[nH]n2)n1
IC50 [1]: 64.1 nM

C[C@H](Nc1nccc(Nc2cc(C3CC3(F)F)[nH]n2)n1)c1ccc2[nH]cnc2c1 (stereo not given in full)
Ki [2]: 5.13 nM | IC50 [1]: 244 nM
